One data set has as its system AD38 cells. Put plainly: Viability of AD38 cells (Promega CellTiter-Glo). Type of data set: cell-based. The note with it: 10 μM compound, 6 days, CellTiter-Glo luminescence normalized to DMSO control (100%). In outline:
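After 6 days of compound exposure at 37° C (compound added as 10× solution in 10% DMSO; 50,000 cells/well, collagen-coated), medium was replaced with tetracycline-free DMEM/F12, 2% FBS, 1% DMSO. CellTiter-Glo luminescence was then recorded and normalized to DMSO-treated wells as 100% viability.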

For data set [1], the system named is HBV viral load in AD38 cells. Put plainly: Viral load production in AD38 cells, quantitative PCR of the core sequence in supernatant. Type of data set: cell-based. Conditions: Hepatitis B virus, 144 h, 10 μM compound, 6 days at 37° C., supernatant qPCR, relative to DMSO control; read-out: AD38 Viral Load (%) (VL with cmpd/VL in DMSO control) at 10 μM.

Take `O=C(NCc1cnc(-c2ccc(O)cc2)s1)c1ccc2c(c1)NC(=O)c1cc(F)ccc1S2` [compound 1746]: in the data set on AD38 cells, the “AD38 Viability Normalized Result (cmpd/DMSO %) at 10 μM” value is reported as 92%. Besides, the activity at 10 µM in data set [1] worked out at 5.6%.
On to `CN1c2ccc(C(=O)NCc3cnc(-c4ccc(C#N)cc4)s3)cc2NC(=O)c2ccccc21` [compound 1974], for which the “AD38 Viability Normalized Result (cmpd/DMSO %) at 10 μM” value in the data set with AD38 cells is 103%. In addition, the activity at 10 µM in data set [1] is 15.3%.
The matching figures for `CN(C)c1ccc(-c2ncc(CNC(=O)c3ccc4c(c3)NC(=O)c3ccccc3O4)s2)cc1` [compound 1697]: 90% and 5.5%.
With `O=C(NCc1cnc(-c2nccs2)s1)c1ccc2c(c1)NC(=O)c1ccccc1O2` [compound 1893], the “AD38 Viability Normalized Result (cmpd/DMSO %) at 10 μM” value with AD38 cells was 91%. The activity at 10 µM in data set [1] is 2%.
For `O=C(NCc1cnc(N2CCC(O)CC2)s1)c1ccc2c(c1)NC(=O)c1ccccc1S2(=O)=O` [compound 1859], the “AD38 Viability Normalized Result (cmpd/DMSO %) at 10 μM” value with AD38 cells is 89%. The activity at 10 µM in data set [1] is 2.7%.
For `O=C(NCc1cnc(-c2ccc(F)cc2)s1)c1ccc2c(c1)NC(=O)c1ccccc1O2` [compound 1561], the “AD38 Viability Normalized Result (cmpd/DMSO %) at 10 μM” value with AD38 cells was 96%. Moreover, the activity at 10 µM in data set [1] came to 10.3%.
Take `Cl.O=C(NCc1cnc(-c2ccc(OCC3CCCNC3)cc2)s1)c1ccc2c(c1)NC(=O)c1ccccc1S2(=O)=O` (centres unmarked) [compound 1997, 11-oxo-N-((2-(4-(piperidin-3-ylmethoxy)phenyl)thiazol-5-yl)methyl)-10, 11-dihydrodibenzo [b, f] [1, 4] thiazepine-8-carboxamide 5,5-dioxide hydrochloride]: the “AD38 Viability Normalized Result (cmpd/DMSO %) at 10 μM” value in the data set with AD38 cells amounted to 104%. Moreover, in data set [1], the activity at 10 µM was found to be 9.7%.
On to `Cc1c(C(=O)NCc2cnc(C(F)(F)F)s2)ccc2c1NC(=O)c1ccccc1O2` [compound 1941], for which the “AD38 Viability Normalized Result (cmpd/DMSO %) at 10 μM” value with AD38 cells was found to be 84%. Further, the activity at 10 µM in data set [1] is 5.2%.
For the molecule `O=C1Cc2cc(-c3ncc(CNC(=O)c4ccc5c(c4)NC(=O)c4ccccc4O5)s3)ccc2N1` [compound 1833], in the data set on AD38 cells, the “AD38 Viability Normalized Result (cmpd/DMSO %) at 10 μM” value amounted to 102%. Further, the activity at 10 µM in data set [1] was 67.4%.
In the case of `O=C(O)c1ccc(-c2ncc(CNC(=O)c3ccc4c(c3)NC(=O)c3ccccc3S4(=O)=O)s2)cc1` [compound 1585, 4-(5-((5,5-dioxido-11-oxo-10, 11-dihydrodibenzo [b, f] [1, 4]thiazepine-8-carboxamido)methyl)thiazol-2-yl) benzoic acid], the “AD38 Viability Normalized Result (cmpd/DMSO %) at 10 μM” value in the data set with AD38 cells turned out to be 96%. The activity at 10 µM in data set [1] is 64.1%.
In the case of `O=C(NCc1cnc(C(F)(F)F)s1)c1ccc2c(c1)NC(=O)c1ccccc1S2` [compound 1421], the “AD38 Viability Normalized Result (cmpd/DMSO %) at 10 μM” value with AD38 cells was 104%. Besides, the activity at 10 µM in data set [1] came out at 1.3%.
Regarding `O=C(O)COc1ccc(-c2ncc(CNC(=O)c3ccc4c(c3)NC(=O)c3ccccc3S4)s2)cc1` [compound 1607, 2-(4-(5-((11-oxo-10, 11-dihydrodibenzo [b, f] [1, 4]thiazepine-8-carboxamido)methyl)thiazol-2-yl)phenoxy) acetic acid], in the data set on AD38 cells, the “AD38 Viability Normalized Result (cmpd/DMSO %) at 10 μM” value is 98%. In addition, the activity at 10 µM in data set [1] is 52.8%.
For the molecule `O=C(NCc1cnc(-c2ccc(OCCN3CCOCC3)cc2)s1)c1ccc2c(c1)NC(=O)c1ccccc1S2(=O)=O` [compound 1587], in the data set on AD38 cells, the “AD38 Viability Normalized Result (cmpd/DMSO %) at 10 μM” value was determined as 99%. Moreover, in data set [1], the activity at 10 µM was 2.8%.
As to `O=C(NCc1cnc(-c2cnc(O)nc2)s1)c1ccc2c(c1)NC(=O)c1ccccc1O2` [compound 1709, N-((2-(2-hydroxypyrimidin-5-yl)thiazol-5-yl)methyl)-11-oxo-10, 11-dihydrodibenzo [b, f] [1, 4] oxazepine-8-carboxamide], in the data set on AD38 cells, the “AD38 Viability Normalized Result (cmpd/DMSO %) at 10 μM” value is 94%. Further, the activity at 10 µM in data set [1] came to 51.1%.
With `Cc1c(C(=O)NCc2cnc(-n3cccn3)s2)ccc2c1NC(=O)c1ccccc1S2` [C20-02], in the data set on AD38 cells, the “AD38 Viability Normalized Result (cmpd/DMSO %) at 10 μM” value stood at 95%. For the same molecule, the activity at 10 µM in data set [1] was 0.5%.
With `O=C(NCc1cnc(-c2ccc3ncccc3c2)s1)c1ccc2c(c1)NC(=O)c1ccccc1S2(=O)=O` [compound 1819], the “AD38 Viability Normalized Result (cmpd/DMSO %) at 10 μM” value in the data set with AD38 cells stood at 118%. Moreover, the activity at 10 µM in data set [1] amounted to 0.5%.
`Cc1c(C(=O)NCc2cnc(-c3ccc(OCCCN(C)C)cc3)s2)ccc2c1NC(=O)c1ccccc1S2` [C20-01]: in the data set with AD38 cells, the “AD38 Viability Normalized Result (cmpd/DMSO %) at 10 μM” value turned out to be 98%. Besides, the activity at 10 µM in data set [1] came to 1.5%.
Take `O=C(NCc1cnc(-c2ccc(-c3nccs3)cc2)s1)c1ccc2c(c1)NC(=O)c1ccccc1S2(=O)=O` [compound 1954]: in the data set with AD38 cells, the “AD38 Viability Normalized Result (cmpd/DMSO %) at 10 μM” value was found to be 106%. Besides, the activity at 10 µM in data set [1] came out at 0.5%.
On to `CC1c2ccc(C(=O)NCc3cncs3)cc2NC(=O)c2ccccc21` (centres unmarked) [compound 1546], for which the “AD38 Viability Normalized Result (cmpd/DMSO %) at 10 μM” value in the data set with AD38 cells is 97%. Moreover, the activity at 10 µM in data set [1] was 2.2%.
As for `COc1ncc(-c2ncc(CNC(=O)c3ccc4c(c3)NC(=O)c3ccccc3S4(=O)=O)s2)cn1` [1671-A, N-((2-(2-methoxypyrimidin-5-yl)thiazol-5-yl)methyl)-11-oxo-10, 11-dihydrodibenzo [b, f] [1, 4] thiazepine-8-carboxamide 5,5-dioxide], the “AD38 Viability Normalized Result (cmpd/DMSO %) at 10 μM” value in the data set with AD38 cells was 111%. Further, the activity at 10 µM in data set [1] was found to be 0.7%.
In the same order, the values of `Cl.NCCCSc1ccc(-c2ncc(CNC(=O)c3ccc4c(c3)NC(=O)c3ccccc3S4(=O)=O)s2)cc1` [compound 11007, N-((2-(4-((3-aminopropyl)thio)phenyl)thiazol-5-yl)methyl)-11-oxo-10, 11-dihydrodibenzo [b, f] [1, 4] thiazepine-8-carboxamide 5,5-dioxide hydrochloride] are 101% and 2%.
With `O=C(NCc1cnc(-c2ccc(O)cc2)s1)c1ccc2c(c1)NC(=O)c1ccccc1O2` [compound 1618], the “AD38 Viability Normalized Result (cmpd/DMSO %) at 10 μM” value in the data set with AD38 cells was determined as 100%. In data set [1], the activity at 10 µM is 1.9%.
Consider `Cc1ncc(CNC(=O)c2ccc3c(c2)NC(=O)c2ccccc2C3C)s1` (centres unmarked) [compound 1548], for which, in the data set with AD38 cells, the “AD38 Viability Normalized Result (cmpd/DMSO %) at 10 μM” value stood at 97%. For the same molecule, the activity at 10 µM in data set [1] was 0.4%.
With `O=C(NCc1cnc(-c2ccc(C#CCCN3CCOCC3)cc2)s1)c1ccc2c(c1)NC(=O)c1ccccc1S2(=O)=O` [compound 11061, N-((2-(4-(4-morpholinobut-1-yn-1-yl)phenyl)thiazol-5-yl)methyl)-11-oxo-10, 11-dihydrodibenzo [b, f] [1, 4] thiazepine-8-carboxamide 5,5-dioxide], in the data set with AD38 cells, the “AD38 Viability Normalized Result (cmpd/DMSO %) at 10 μM” value stood at 95%. In addition, in data set [1], the activity at 10 µM worked out at 0.9%.
Take `N#Cc1ccc(-c2ncc(CNC(=O)c3ccc4c(c3)NC(=O)c3ccccc3S4(=O)=O)s2)cc1` [1654-A, N-((2-(4-cyanophenyl)thiazol-5-yl)methyl)-11-oxo-10, 11-dihydrodibenzo [b, f] [1, 4] thiazepine-8-carboxamide 5,5-dioxide]: in the data set on AD38 cells, the “AD38 Viability Normalized Result (cmpd/DMSO %) at 10 μM” value worked out at 68%. In addition, the activity at 10 µM in data set [1] turned out to be 2.6%.
On to `O=C(NCc1cnc(-c2ccc(O)nc2)s1)c1ccc2c(c1)NC(=O)c1ccccc1S2(=O)=O` [compound 1669, N-((2-(6-hydroxypyridin-3-yl)thiazol-5-yl)methyl)-11-oxo-10, 11-dihydrodibenzo [b, f] [1, 4] thiazepine-8-carboxamide 5,5-dioxide], for which the “AD38 Viability Normalized Result (cmpd/DMSO %) at 10 μM” value in the data set on AD38 cells worked out at 104%. The activity at 10 µM in data set [1] came to 13.1%.
Regarding `CN(C)c1ccc(-c2ncc(CNC(=O)c3ccc4c(c3)NC(=O)c3ccccc3O4)s2)cn1` [compound 1708], in the data set on AD38 cells, the “AD38 Viability Normalized Result (cmpd/DMSO %) at 10 μM” value was determined as 90%. Further, in data set [1], the activity at 10 µM was found to be 0.8%.
In the case of `N#Cc1ccnc(-c2ncc(CNC(=O)c3ccc4c(c3)NC(=O)c3ccccc3S4(=O)=O)s2)c1` [compound 11051], in the data set with AD38 cells, the “AD38 Viability Normalized Result (cmpd/DMSO %) at 10 μM” value is 103%. The activity at 10 µM in data set [1] stood at 1.2%.
As to `CN(C)c1ncc(-c2ncc(CNC(=O)c3ccc4c(c3)NC(=O)c3ccccc3O4)s2)cn1` [compound 1711], the “AD38 Viability Normalized Result (cmpd/DMSO %) at 10 μM” value in the data set on AD38 cells is listed as 96%. Moreover, the activity at 10 µM in data set [1] came out at 6.5%.
In the same order, the values of `N#Cc1ccc(-c2ncc(CNC(=O)c3ccc4c(c3)NC(=O)c3ccccc3O4)s2)c(F)c1` [compound 1826] are 91% and 11.8%.
In the case of `CC(C)(C)NCCCSc1ccc(-c2ncc(CNC(=O)c3ccc4c(c3)NC(=O)c3ccccc3S4(=O)=O)s2)cc1.O=C(O)C(F)(F)F` [compound 11064, N-((2-(4-((3-(tert-butylamino)propyl)thio)phenyl)thiazol-5-yl)methyl)-11-oxo-10, 11-dihydrodibenzo [b, f] [1, 4] thiazepine-8-carboxamide 5,5-dioxide TFA salt], the “AD38 Viability Normalized Result (cmpd/DMSO %) at 10 μM” value in the data set on AD38 cells came to 85%. Besides, the activity at 10 µM in data set [1] came out at 4.1%.
Consider `CS(=O)(=O)c1ccc(-c2ncc(CNC(=O)c3ccc4c(c3)NC(=O)c3ccccc3O4)s2)cc1` [compound 1861], for which the “AD38 Viability Normalized Result (cmpd/DMSO %) at 10 μM” value in the data set with AD38 cells turned out to be 94%. The activity at 10 µM in data set [1] was found to be 5.9%.
The matching figures for `Cc1cc(-c2ncc(CNC(=O)c3ccc4c(c3)NC(=O)c3ccccc3S4(=O)=O)s2)ccc1O` [compound 1804, N-((2-(4-hydroxy-3-methylphenyl)thiazol-5-yl)methyl)-11-oxo-10, 11-dihydrodibenzo [b, f] [1, 4] thiazepine-8-carboxamide 5,5-dioxide]: 103% and 0.5%.
The matching figures for `O=C(NCc1cnc(-c2cc(F)c(O)c(F)c2)s1)c1ccc2c(c1)NC(=O)c1ccccc1S2(=O)=O` [compound 1665]: 90% and 2.7%.
